Assay results taken from patent US10344330B2, “Glatiramer acetate response biomarker mRNA potency assay” (Mylan Inc., priority 2013, dated 2019).

How the values were obtained:
Assay type in all cases: cell-based, mouse
IL-4 mRNA in LN cells = assay: IL-4 mRNA by real-time PCR in LN cells of GA-immunized CD-1, BALB/cByJ, SJL/J mice (Example III); conditions: stimulation 2.5 μg/mL, 6 hours
Experimental: (§1) On Day 0, mice were immunized with 250 μg GA (GMA, Mylan Pharmaceuticals, Inc.) and CFA. The GA solution (20 mg/mL) was diluted with Dulbecco's Phosphate-Buffered Saline to 5 mg/mL. The dosing formulation consisted of equal volumes of the diluted GA solution (5 mg/mL) and CFA solution, mixed until well-emulsified. Animals were weighed and allocated to groups. Animals were dosed by injection into four footpads. The injection volume per animal was 0.1 mL (about 10 μL into each front footpad, and 40 μL into each hind footpad).
(§2) Immunized animals were euthanized by cervical dislocation on Day 10 post-immunization. Lymph node cells were isolated from animals and treated with Myelin Basic Protein (MBP, a negative control), Concanavalin A (ConA, a positive control) or GA as shown in Table 16. Lymph nodes in the axillary and popliteal regions were removed aseptically in a purifier clean bench. […] The LN were then washed 3 times with −5 mL of RPMI medium, and isolated by pressing the LN with a syringe plunger. […] The cell suspension was centrifuged at about 200×g for 10 minutes at about 4° C. and re-suspended in ice cold enriched DCCM-1 medium. Cells were seeded in 96-well tissue culture plates.
(§3) LN cells isolated from GA-immunized animals were stimulated with GA (GMA, Mylan Pharmaceuticals, Inc.) at concentrations as indicated in Tables 16 and 17. A positive control was prepared by treating LN cells with 2.5 μg/mL concavalin A (ConA, a non-specific T cell stimulant). Myelin basic protein (MBP, 10 μg/mL) and enriched DCCM-1 medium served as negative controls. The cells from all groups each were stimulated with the same GA lot. Each reaction was set up in triplicate.
(§4) After incubation at about 37° C. in a humidified CO2 incubator for 6 hours, the cells were lysed for total RNA isolation. Total RNA was isolated from treated LN cells using SV 96 Total RNA Isolation System according to the manufacturer's protocol (Promega, Cat. #Z3500). Cells were washed once with Phosphate Buffered Saline (PBS) and lysed in RNA lysis buffer. The lysate was transferred to wells of the SV 96 binding plate. Samples were washed with RNA wash solution and treated with DNase. Total RNA was eluted with nuclease-free water from the binding plate.
(§5) After the reverse transcriptase reaction was completed, cDNA samples were used directly for real-time PCR to measure the response biomarker mRNA levels produced by the stimulated cells. […] All probes for target genes contained FAM dye, and probes for the internal control contained VIC®/MGB dye. Samples will be prepared and run in 96-well plates using a Real-Time PCR system (7500, Life Technologies). This system allows direct detection of PCR-product formation by measuring the increase in fluorescent emission continuously during the PCR reaction. A relative quantitation method was used to analyze changes in mouse IL-2, IL-4, IL-5, IL-10, IL-13, IFN-γ and TNF-α expression in GA-treated samples relative to the untreated control (enriched DCCM-1 treated) samples. The Real-Time PCR program was:
(§6) The levels of mouse cytokine amplicons (IL-2, IL-4, IL-5, IL-10, IL-13, mIFN-γ and TNF-α) were normalized to internal probe levels (GAPDH) from the same samples. The following equations were used to calculate the relative increase in response to GA stimulation compared to the control sample: ΔCT=CT_target−CT_reference ΔΔCT=−ΔCT_Treated−CT_VC

IL-10 mRNA in LN cells = assay: IL-10 mRNA by real-time PCR in LN cells of GA-immunized CD-1, BALB/cByJ, SJL/J mice (Example III); conditions: stimulation 2.5 μg/mL, 6 hours
Experimental: as §1, §2, §3, §4, §5, §6

[1] = tested on: mIL-5 mRNA in primary LN cells; assay: mIL-5 mRNA by real-time PCR in stimulated LN cells of immunized (SJL/J×BALB/C)F1 mice (Example I); conditions: for mIL-5 mRNA Level: Experiment 1, GA-immunized (SJL/J×BALB/C)F1; for mIL-5 mRNA: not normalized to a reference gene
Experimental: (§7) For each of the three experiments summarized in Table 1, female (SJL/J×BALB/C) F1 hybrid (Jackson Laboratory) mice were immunized by footpad injection with either 250 μg GMA (Mylan Pharmaceuticals, Inc.) and CFA (Sigma Aldrich), or Mannitol and CFA (as a negative control). The GA solution was diluted to 5 mg/mL with Dulbecco's Phosphate-buffered saline. A dose solution was then prepared by mixing the diluted GA solution (5 mg/mL) and CFA (1:1) until well-emulsified. Each mouse received a total injection volume of 0.1 mL (250 μg GA). Animals were immunized on Day 0. Immunized animals were sacrificed via cervical dislocation on Day 10 following immunization. […] The LN were washed 3 times with −5 mL of RPMI medium, and the LN cells isolated by pressing the LN with a syringe plunger. […] The cell suspension was centrifuged at about 200×g for 10 minutes at about 4° C. and re-suspended in ice cold enriched DCCM-1 medium. The LN cells (2.5×10^6 cells/cm^2) were plated in the wells of a 48-well tissue culture plate and stimulated with GA or controls.
(§8) Expression of cytokine mRNA was quantitatively analyzed using a Real-Time PCR system (7500, Applied Biosystems).
(§9) (DCCM1 from Beit Haemek Ltd.; Cat. No. 05 010 1A). There was no MBP treatment for the 2-hour groups.
(§10) Group 1B animals were female (SJL/J×BALB/C) F1 hybrid (Jackson Laboratory) mice immunized by footpad injection with either 250 μg GA and CFA, or Mannitol and CFA (as a negative control). A dose solution was prepared by mixing a diluted GA solution (5 mg/mL) and CFA (1:1). Each mouse received a total injection volume of […] (250 μg GA). Animals were immunized on Day 0. Immunized animals were sacrificed via cervical dislocation on Day 10 following immunization. Lymph nodes from immunized mice were removed and isolated. LN cells (2.5×10^6 cells/cm^2) were plated in the wells of a 48-well tissue culture plate for stimulation with GA.
(§11) Expression of cytokine mRNA was quantitatively analyzed 4 and 6 hours after using a Real-Time PCR system (7500, Applied Biosystems).

[2] = tested on: mIL-4 mRNA in primary LN cells; assay: mIL-4 mRNA by real-time PCR in stimulated LN cells of immunized (SJL/J×BALB/C)F1 mice (Example I); conditions: for mIL-4 mRNA Level: Experiment 1, GA-immunized (SJL/J×BALB/C)F1; for mIL-4 mRNA: reference 18S rRNA
Experimental: as §7, §8, §9, §10, §11

[3] = tested on: IL-1b secreted by LN cells; assay: IL-1b secretion by GA-stimulated LN cells, MSD 9-plex ELISA (Example II); conditions: 21 hr
[4] = Group 2C: BALB/cByJ, GA-immunized
[5] = 2 hour post stimulation, GA 10, ConA 2.5 μg/mL
[6] = 4 hour post stimulation, GA 10, MBP 10, ConA 2.5 μg/mL
[7] = 6 hour post stimulation, GA 10, MBP 10, ConA 2.5 μg/mL
[8] = 24 hour post stimulation, GA 10, MBP 10, ConA 2.5 μg/mL
[9] = Group 1B (GA + CFA), 4 hours post-stimulation, GA 10, MBP 10, ConA 2.5 μg/mL
[10] = Group 1B (GA + CFA), 6 hours post-stimulation, GA 10, MBP 10, ConA 2.5 μg/mL
[11] = Group 2B (Mannitol + CFA), 4 hours post-stimulation, GA 10, MBP 10, ConA 2.5 μg/mL
[12] = Group 2B (Mannitol + CFA), 6 hours post-stimulation, GA 10, MBP 10, ConA 2.5 μg/mL

Substance: Concanavalin A [ConA, reference compound]
- IL-4 mRNA Expression (IL-4 mRNA in LN cells; Group 1C: CD-1, GA-immunized): 23.8 fold change vs control
- IL-4 mRNA Expression (IL-4 mRNA in LN cells; [4]): 27.2 fold change vs control
- IL-4 mRNA Expression (IL-4 mRNA in LN cells; Group 3C: SJL/J, GA-immunized): 29.2 fold change vs control
- IL-10 mRNA Expression (IL-10 mRNA in LN cells; Group 1C: CD-1, GA-immunized): 0.4 fold change vs control
- IL-10 mRNA Expression (IL-10 mRNA in LN cells; [4]): 0.9 fold change vs control
- IL-10 mRNA Expression (IL-10 mRNA in LN cells; Group 3C: SJL/J, GA-immunized): 0.4 fold change vs control
- mIL-5 mRNA Level [1, 5]: 3.6 fold change vs control
- mIL-5 mRNA Level [1, 6]: 17.1 fold change vs control
- mIL-5 mRNA Level [1, 7]: 13.1 fold change vs control
- mIL-5 mRNA Level [1, 8]: 0.5 fold change vs control
- mIL-5 mRNA [1, 9]: 20.4 fold change vs control
- mIL-5 mRNA [1, 10]: 26.7 fold change vs control
- mIL-5 mRNA [1, 11]: 16.6 fold change vs control
- mIL-5 mRNA [1, 12]: 36.5 fold change vs control
- mIL-4 mRNA Level [2, 5]: 35.7 fold change vs control
- mIL-4 mRNA Level [2, 6]: 47.6 fold change vs control
- mIL-4 mRNA Level [2, 7]: 52.2 fold change vs control
- mIL-4 mRNA Level [2, 8]: 6.1 fold change vs control
- mIL-4 mRNA [2, 9]: 27.1 fold change vs control
- mIL-4 mRNA [2, 10]: 12.8 fold change vs control
- mIL-4 mRNA [2, 11]: 37.3 fold change vs control
- mIL-4 mRNA [2, 12]: 56.2 fold change vs control
- IL-1b secretion response ratio (treated cell medium to control DCCM1 medium) ([3]; BALB/cByJ, immunized GA Intraplantar): 11.73
- IL-1b secretion response ratio (treated cell medium to control DCCM1 medium) ([3]; BALB/cByJ, immunized GA Lower Limb): 8.70
- IL-1b secretion response ratio (treated cell medium to control DCCM1 medium) ([3]; C57BL10J, immunized GA Lower Limb): 1.42
- IL-1b secretion response ratio (treated cell medium to control DCCM1 medium) ([3]; CD-1, immunized GA Lower Limb): 2.86
